Where two headings read alike, the source gives them in different places.
Columns and labels:
[1] = Adipose tissue mass in mice bearing B16F10 melanoma; assay type: in vivo, C57BL/6 male mice; settings: 2 mg/kg
Protocol: (§1) C57BL/6 male mice were ad libitum fed TD.06414 a high fat diet (HFD) composed of 60% Kcal from fat (DIO) for 12-14 weeks, until average body weight of the obese mice was >40 g. Age-matched C57Bl/6 male mice were maintained on a normal rodent diet (10% fat, low-fat diet, LFD) for 12-14 weeks. The study was initiated by injecting 2×10^5 B16F10 melanoma cells into the flank of both lean and obese animals.
(§2) Treatment was via subcutaneous, intra-scapular injection at 5 ml/kg every four days (compound 1) or every 2 days (compound 4) over a 17 day period at the doses and on the schedule shown in Table 2.

[2] = every fourth day schedule; limited by confusion and insomnia; cited from earlier work
B16F10 melanoma [3] = assay: B16F10 melanoma tumor growth in obese (DIO) and lean mice; assay type: in vivo, C57BL/6 male mice; settings: 2 mg/kg SC Q2D
Text: The study would compare weight changes in both obese and lean animal groups; measure biologic changes in hematology parameters; and compare conjugate molecules of the present disclosure against related small molecules for efficacy.
as §1
as §2, with “The mice were treated with 5% mannitol/water (vehicle control), Compound 1 or Compound 4 once tumors had reached >100 mm^3. Treatment” for “Treatment”

B16F10 melanoma [4] = assay: Metastatic lung lesions in B16F10 melanoma/DIO mice; assay type: in vivo, C57BL/6 male mice; settings: Obese Mice; 2 mg/kg
Protocol: as §1
as §2, with “The mice were treated with 5% mannitol/water (vehicle control), Compound 1 or Compound 4 once tumors had reached >100 mm^3. Treatment” for “Treatment”

[5] = SD rats; 5 mg/kg/day (Kim et al.); cited from earlier work
[6] = Body weight of B16F10 tumor-bearing obese and lean mice; assay type: in vivo, C57BL/6 male mice; settings: 2 mg/kg SC Q2D
Protocol: as §1
as §2, with “The mice were treated with 5% mannitol/water (vehicle control), Compound 1 or Compound 4 once tumors had reached >100 mm^3. Treatment” for “Treatment”

[7] = cited from earlier work
NOAEL in rat = settings: in vivo, after 3 mg/kg COMPOUND 1
NOAEL in dog = settings: in vivo, after 0.5 mg/kg COMPOUND 1
CYP3A 4 & 5 = assay: CYP3A4/5 substrate status; assay type: in vitro ADME
[8] = in combination with paclitaxel; dosed three times per week; cited from earlier work

COC1C(OC(=O)/C=C/c2ccc(OCCN(C)C)cc2)CC[C@]2(CO2)C1[C@@]1(C)O[C@@H]1CC=C(C)C (stereo partly drawn) [Compound 4]
Tissue Weight, Epididymal Fat ([1]; Lean Mice): 0.134 g
Tissue Weight, Inguinal Fat ([1]; Lean Mice): 0.208 g
Tissue Weight, Retroperitoneal Fat ([1]; Lean Mice): 0.029 g
Tissue Weight, Epididymal Fat ([1]; Obese Mice): 0.424 g
Tissue Weight, Inguinal Fat ([1]; Obese Mice): 0.416 g
Tissue Weight, Retroperitoneal Fat ([1]; Obese Mice): 0.142 g
MTD [2]: 15 mg/m2/day
effect on tumor growth (B16F10 melanoma [3]; lean mice): no effect on tumor growth
inhibition of growth of tumors (B16F10 melanoma [3]; obese mice): 28%
number of metastatic lung lesions, mean +/- SEM (B16F10 melanoma [4]): 2.4+/−0.8 lesions/mouse
body weight effect [5]: weight loss
effect on body weight ([6]; lean mice): no effect on body weight
change in body weight ([6]; obese mice): −7.9%
body weight effect ([7]; C57BL/6J mice, 5 mg/kg/day (Kim et al.)): weight loss
body weight effect ([7]; DIO mice, dosed at 1 mg/kg (Hughes et al.)): efficacious in eliciting weight loss

COC1C(OC(=O)N[C@H]2CC[C@H](N)CC2)CC[C@]2(CO2)C1[C@@]1(C)O[C@@H]1CC=C(C)C (stereo partly drawn) [Compound 5]
AUC (NOAEL in rat): 23.3 ng·h/mL
Cmax (NOAEL in rat): 1.5 ng/mL
AUC (NOAEL in dog): 20.7 ng·h/mL
Cmax (NOAEL in dog): 0.4 ng/mL
CYP3A 4 & 5 substrate (CYP3A 4 & 5): substrate

CO[C@@H]1[C@H](OC(=O)NC(=O)CCl)CC[C@]2(CO2)[C@H]1[C@@]1(C)O[C@@H]1CC=C(C)C [TNP-470, chloroacetylcarbamoylfumagillol]
MTD [8]: 60 mg/m2
obesity prevention ([7]; mice, 15 or 20 mg/kg every other day (Brakenhielm)): prevention of obesity
body weight effect ([7]; ob/ob mice, daily doses 2.5 mg/kg to 10 mg/kg (Rupnick et al.)): weight loss

CO[C@@H]1[C@H](OC(=O)/C=C/C=C/C=C/C=C/C(=O)O)CC[C@]2(CO2)[C@H]1[C@@]1(C)O[C@@H]1CC=C(C)C [fumagillin]
body weight effect ([7]; C57BL/6 mice, oral 1 mg/kg daily (Lijnen et al.)): weight loss
